What follows are molecules tested on r(CUG)12-MBNL1 complex (assay: Inhibition of the r(CUG)12-MBNL1 complex measured by TR-FRET). Conditions: Table M; 80 nM RNA, 60 nM MBNL1-His6.
Format: biochemical

Row | IC50 [µM] | SMILES
1 | 9.84 | Cc1cc(-c2nc3cc(-c4ccc5[nH]c(-c6ccc(OCCCN(C)C)c(C)c6)nc5c4)ccc3[nH]2)ccc1O [Compound 365]
2 | > 200 | CN1C(C)(C)CC(Oc2ccc(-c3nc4cc(-c5ccc6[nH]c(-c7ccc(OC8CC(C)(C)N(C)C(C)(C)C8)cc7)nc6c5)ccc4[nH]3)cc2)CC1(C)C [Compound 366]
3 | 21.5 | CN(C)CCOCCOc1ccc(-c2nc3cc(-c4ccc5[nH]c(-c6ccc(OCCOCCN(C)C)cc6)nc5c4)ccc3[nH]2)cc1 [Compound 367]
4 | 18 | CN(C)CCOCCOc1ccc(-c2nc3cc(-c4ccc5[nH]c(-c6ccc(O)cc6)nc5c4)ccc3[nH]2)cc1 [Compound 368]
5 | > 200 | CN(C)CC(CN(C)C)Oc1ccc(-c2nc3cc(-c4ccc5[nH]c(-c6ccc(OC(CN(C)C)CN(C)C)cc6)nc5c4)ccc3[nH]2)cc1 [Compound 369]
6 | 82.3 | CN(C)CC(CN(C)C)Oc1ccc(-c2nc3cc(-c4ccc5[nH]c(-c6ccc(O)cc6)nc5c4)ccc3[nH]2)cc1 [Compound 370]
7 | > 200 | CN(C)CCCOc1c(C(C)(C)C)cc(-c2nc3cc(-c4ccc5[nH]c(-c6cc(C(C)(C)C)c(O)c(C(C)(C)C)c6)nc5c4)ccc3[nH]2)cc1C(C)(C)C [Compound 372, 2,6-di-tert-butyl-4-(2′-(3,5-di-tert-butyl-4-(3-(dimethylamino)propoxy)phenyl)-1H,1′H-[5,5′-bibenzo[d]imidazol]-2-yl)phenol]
8 | 29.2 | CN1CC[C@@H](Oc2ccc(-c3nc4cc(-c5ccc6[nH]c(-c7ccc(O[C@@H]8CCN(C)C8)cc7)nc6c5)ccc4[nH]3)cc2)C1 [Compound 373]
9 | 12.8 | CN1CC[C@@H](Oc2ccc(-c3nc4cc(-c5ccc6[nH]c(-c7ccc(O)cc7)nc6c5)ccc4[nH]3)cc2)C1 [Compound 374]
10 | 69.5 | CN(C)CC(C)(C)COc1ccc(-c2nc3cc(-c4ccc5[nH]c(-c6ccc(OCC(C)(C)CN(C)C)cc6)nc5c4)ccc3[nH]2)cc1 [Compound 376]
11 | 17.3 | NCCCOc1ccc(-c2nc3cc(-c4ccc5[nH]c(-c6ccc(OCCCN)cc6)nc5c4)ccc3[nH]2)cc1 [Compound 378]
12 | 28.8 | [N-]=[N+]=NCCCOc1ccc(-c2nc3cc(-c4ccc5[nH]c(-c6ccc(OCCCN)cc6)nc5c4)ccc3[nH]2)cc1 [Compound 379]
13 | 16.7 | NCCCOc1ccc(-c2nc3cc(-c4ccc5[nH]c(-c6ccc(O)cc6)nc5c4)ccc3[nH]2)cc1 [Compound 380]
14 | 49.9 | CN(C)CCSc1ccc(-c2nc3cc(-c4ccc5[nH]c(-c6ccc(SCCN(C)C)cc6)nc5c4)ccc3[nH]2)cc1 [Compound 381]
15 | 17.4 | CN(C)CCNC(=O)c1ccc(-c2nc3cc(-c4ccc5[nH]c(-c6ccc(OCCN(C)C)cc6)nc5c4)ccc3[nH]2)cc1 [Compound 382]
16 | 41.6 | CN(C)CCCSc1ccc(-c2nc3cc(-c4ccc5[nH]c(-c6ccc(SCCCN(C)C)cc6)nc5c4)ccc3[nH]2)cc1 [Compound 383]
17 | 31.2 | CN(C)CCCCc1ccc(-c2nc3cc(-c4ccc5[nH]c(-c6ccc(CCCCN(C)C)cc6)nc5c4)ccc3[nH]2)cc1 [Compound 385]
18 | 46.4 | CN(C)CCC#Cc1ccc(-c2nc3cc(-c4ccc5[nH]c(-c6ccc(C#CCCN(C)C)cc6)nc5c4)ccc3[nH]2)cc1 [Compound 386]
19 | 8.86 | CN(C)CCCSc1ccc(-c2nc3cc(-c4ccc5[nH]c(-c6ccc(C(=O)NCCN(C)C)cc6)nc5c4)ccc3[nH]2)cc1 [Compound 387]
20 | 30.2 | C[C@H](CN(C)C)NC(=O)c1ccc(-c2nc3cc(-c4ccc5[nH]c(-c6ccc(C(=O)N[C@H](C)CN(C)C)cc6)nc5c4)ccc3[nH]2)cc1 [Compound 388]
21 | 34.2 | C[C@@H](CN(C)C)NC(=O)c1ccc(-c2nc3cc(-c4ccc5[nH]c(-c6ccc(C(=O)N[C@@H](C)CN(C)C)cc6)nc5c4)ccc3[nH]2)cc1 [Compound 389]

The next lines start with the molecule.

Row | SMILES | IC50 [µM]
22 | CN(C)CCCOc1ccc2nc(-c3ccc(-c4nc5ccc(OCCCN(C)C)cc5[nH]4)c(Br)c3)[nH]c2c1 [Compound 294, 3,3′-(2,2′-(2-bromo-1,4-phenylene)bis(3H-benzo[d]imidazole-5,2-diyl))bis(oxy)bis(N,N-dimethylpropan-1-amine)] | 18.4
23 | c1cc2nc(-c3ccc(-c4nc5ccc(OCCCN6CCCC6)cc5[nH]4)cc3)[nH]c2cc1OCCCN1CCCC1 [Compound 295] | 69.9
24 | CN(C)CCCOc1ccc2nc(-c3cc(F)c(-c4nc5ccc(OCCCN(C)C)cc5[nH]4)cc3F)[nH]c2c1 [Compound 296] | 8.4
25 | COc1c(-c2nc3ccc(SCCCN(C)C)cc3[nH]2)ccc(-c2nc3ccc(SCCCN(C)C)cc3[nH]2)c1OC [Compound 300, 3,3′-(((2,3-dimethoxy-1,4-phenylene)bis(1H-benzo[d]imidazole-2,6-diyl))bis(sulfanediyl))bis(N,N-dimethylpropan-1-amine)] | > 200
26 | COc1c(-c2nc3ccc(OCCCN(C)C)cc3[nH]2)ccc(-c2nc3ccc(OCCCN(C)C)cc3[nH]2)c1OC [Compound 303, 3,3′-(((2,3-dimethoxy-1,4-phenylene)bis(1H-benzo[d]imidazole-2,6-diyl))bis(oxy))bis(N,N-dimethylpropan-1-amine)] | > 200
27 | CN(C)CCCOc1ccc2c(c1)nc(-c1ccc(-c3nc4cc(OCCCN(C)C)ccc4n3C)cc1)n2C [Compound 309] | > 200
28 | CN(C)CCCOc1ccc2nc(-c3ccc(-c4nc5ccc(OCCCN(C)C)cc5n4C)cc3)n(C)c2c1 [Compound 310] | > 200
29 | CN(C)CCCOc1ccc2c(c1)nc(-c1ccc(-c3nc4ccc(OCCCN(C)C)cc4n3C)cc1)n2C [Compound 311] | > 200
30 | CN(C)CCCOc1ccc2nc(-c3ccc(-c4nc5ccc(OCCCN(C)C)cc5n4C)cc3)[nH]c2c1 [Compound 312] | > 200
31 | CN(C)CCCOc1ccc2[nH]c(-c3ccc(-c4nc5cc(OCCCN(C)C)ccc5n4C)cc3)nc2c1 [Compound 313] | > 200
32 | CN(C)CCCOc1ccc2nc(-c3cnc(-c4nc5ccc(OCCCN(C)C)cc5[nH]4)nc3)[nH]c2c1 [Compound 317] | 21.4
33 | CN(C)CCCOc1ccc2nc(-c3ccc(-c4nc5ccc(OCCCC(=O)NCCN(C)C)cc5[nH]4)cc3)[nH]c2c1 [Compound 318] | > 200
34 | CN(C)CCNC(=O)c1ccc2nc(-c3ccc(-c4nc5ccc(C(=O)O)cc5[nH]4)cc3)[nH]c2c1 [Compound 319] | > 200
35 | C#CCCNC(=O)CCCOc1ccc2[nH]c(-c3ccc(-c4nc5cc(OCCCN(C)C)ccc5[nH]4)cc3)nc2c1 [Compound 321] | 22.4
36 | C#CCCCNC(=O)CCCOc1ccc2[nH]c(-c3ccc(-c4nc5cc(OCCCN(C)C)ccc5[nH]4)cc3)nc2c1 [Compound 322] | 39.8
37 | C#CCCCCNC(=O)CCCOc1ccc2[nH]c(-c3ccc(-c4nc5cc(OCCCN(C)C)ccc5[nH]4)cc3)nc2c1 [Compound 323] | 20.3
38 | COCCn1c(-c2ccc(-c3nc4cc(OCCCN(C)C)ccc4[nH]3)cc2)nc2cc(OCCCN(C)C)ccc21 [Compound 329] | > 200
39 | COCCn1c(-c2ccc(-c3nc4ccc(OCCCN(C)C)cc4[nH]3)cc2)nc2ccc(OCCCN(C)C)cc21 [Compound 330] | 132

Row | SMILES | IC50 [µM]
40 | CN(C)CCCOc1cc2[nH]c(-c3cc(F)c(-c4nc5cc(F)c(OCCCN(C)C)cc5[nH]4)cc3F)nc2cc1F [Compound 331] | 3.11
41 | CCCOc1cc(-c2nc3cc(OCCCN(C)C)ccc3[nH]2)c(OCCC)cc1-c1nc2cc(OCCCN(C)C)ccc2[nH]1 [Compound 332] | 27.2
42 | CCCCOc1cc(-c2nc3cc(OCCCN(C)C)ccc3[nH]2)c(OCCCC)cc1-c1nc2cc(OCCCN(C)C)ccc2[nH]1 [Compound 333] | 46.9
43 | CN1CCC(Oc2ccc(-c3nc4cc(-c5ccc6[nH]c(-c7ccc(OC8CCN(C)CC8)cc7)nc6c5)ccc4[nH]3)cc2)CC1 [Compound 335] | 22.6
44 | CN1C2CCC1CC(NC(=O)c1ccc(-c3nc4cc(-c5ccc6[nH]c(-c7ccc(C(=O)NC8CC9CCC(C8)N9C)cc7)nc6c5)ccc4[nH]3)cc1)C2 (stereo not drawn) [Compound 341] | 5.32
45 | O=C(N[C@H]1CN2CCC1CC2)c1ccc(-c2nc3cc(-c4ccc5[nH]c(-c6ccc(C(=O)N[C@H]7CN8CCC7CC8)cc6)nc5c4)ccc3[nH]2)cc1 [Compound 342] | 4.38
46 | CN1CCN(CCNC(=O)c2ccc(-c3nc4cc(-c5ccc6[nH]c(-c7ccc(C(=O)O)cc7)nc6c5)ccc4[nH]3)cc2)CC1 [Compound 343] | 73.2
47 | CN1CCC(NC(=O)c2ccc(-c3nc4cc(-c5ccc6[nH]c(-c7ccc(C(=O)O)cc7)nc6c5)ccc4[nH]3)cc2)CC1 [Compound 344] | 154
48 | CN(C)CCNC(=O)c1ccc(-c2nc3cc(-c4ccc5[nH]c(-c6ccc(C(=O)NCCN(C)CCCCc7cn(CCCNC(=O)CCC(=O)NCCCN=[N+]=[N-])nn7)cc6)nc5c4)ccc3[nH]2)cc1 [Compound 345] | 33.5
49 | CCN(CC)C(=O)COc1ccc(-c2nc3cc(-c4ccc5[nH]c(-c6ccc(OCC(=O)N(CC)CC)cc6)nc5c4)ccc3[nH]2)cc1 [Compound 349] | > 200
50 | c1cc(-c2nc3cc(-c4ccc5[nH]c(-c6ccc(OCCN7CCOCC7)cc6)nc5c4)ccc3[nH]2)ccc1OCCN1CCOCC1 [Compound 351] | ≥ 200
51 | CN(C)CCOc1ccc(-c2nc3cc(-c4ccc5[nH]c(-c6cccc(OCCN(C)C)c6)nc5c4)ccc3[nH]2)cc1 [Compound 355] | 11.2
52 | CN1CCCCC1COc1ccc(-c2nc3cc(-c4ccc5[nH]c(-c6ccc(OCC7CCCCN7C)cc6)nc5c4)ccc3[nH]2)cc1 (stereo not drawn) [Compound 359] | 65.5
53 | Cc1cc(-c2nc3cc(-c4ccc5[nH]c(-c6cc(C)c(OCCCN(C)C)c(C)c6)nc5c4)ccc3[nH]2)cc(C)c1OCCCN(C)C [Compound 360] | 21.2
54 | Cc1cc(-c2nc3cc(-c4ccc5[nH]c(-c6cc(C)c(OCCCN(C)C)c(C)c6)nc5c4)ccc3[nH]2)cc(C)c1O [Compound 361] | 9.64
55 | CN(C)CCCCOc1ccc(-c2nc3cc(-c4ccc5[nH]c(-c6ccc(OCCCCN(C)C)cc6)nc5c4)ccc3[nH]2)cc1 [Compound 362] | 29
56 | CN(C)CCCCOc1ccc(-c2nc3cc(-c4ccc5[nH]c(-c6ccc(O)cc6)nc5c4)ccc3[nH]2)cc1 [Compound 363] | 18.7
57 | Cc1cc(-c2nc3cc(-c4ccc5[nH]c(-c6ccc(OCCCN(C)C)c(C)c6)nc5c4)ccc3[nH]2)ccc1OCCCN(C)C [Compound 364] | 7.64
